Laboratory results reported in article PMC12845078 (Pharmaceuticals, 2025).

Key:
[1] = Whole blood/plasma distribution ratio, mouse; type: in vitro ADME
Method: (§4) After incubation for 20 min, a portion of the whole blood was centrifuged at 2500× g for 10 min at 4 °C to separate plasma; another portion of the whole blood was subjected to three cycles of freeze–thawing and ultrasonicated for 10 min to disrupt cells. Equal volumes of plasma and whole blood samples were added to the whole blood and plasma specimens, respectively, followed by protein precipitation with acetonitrile containing an internal standard (IS). […] The RED inserts were placed in the matching incubation plate: 200 µL of drug-containing matrix were added to the sample chamber, and 400 µL of PBS buffer (pH: 7.4) were added to the buffer chamber. After incubation in a constant-temperature shaking incubator for 6 h (37 °C), samples from the sample chamber and buffer chamber were diluted 1:1 with PBS or matrix, respectively, and proteins were precipitated with acetonitrile containing IS.

[2] = Protein binding with hepatic microsomes and plasma proteins across species (summary); type: in vitro ADME; settings: beagle (dog), rat, human, liver microsomes and plasma, pH 7.4, both hepatic microsomes and plasma proteins
Method: as §4

[3] = molecular target: T1, CYP enzymes involved in melatonin 6-hydroxylation (Canis lupus familiaris, UniProt P56592); test: Competitive inhibition of CBD on MT 6-hydroxylation, beagle liver microsomes; type: in vitro ADME; settings: dog, probe melatonin (MT) 1 μM, 6-hydroxylation to 6-HMT
T1 sequence (P56592 2-512): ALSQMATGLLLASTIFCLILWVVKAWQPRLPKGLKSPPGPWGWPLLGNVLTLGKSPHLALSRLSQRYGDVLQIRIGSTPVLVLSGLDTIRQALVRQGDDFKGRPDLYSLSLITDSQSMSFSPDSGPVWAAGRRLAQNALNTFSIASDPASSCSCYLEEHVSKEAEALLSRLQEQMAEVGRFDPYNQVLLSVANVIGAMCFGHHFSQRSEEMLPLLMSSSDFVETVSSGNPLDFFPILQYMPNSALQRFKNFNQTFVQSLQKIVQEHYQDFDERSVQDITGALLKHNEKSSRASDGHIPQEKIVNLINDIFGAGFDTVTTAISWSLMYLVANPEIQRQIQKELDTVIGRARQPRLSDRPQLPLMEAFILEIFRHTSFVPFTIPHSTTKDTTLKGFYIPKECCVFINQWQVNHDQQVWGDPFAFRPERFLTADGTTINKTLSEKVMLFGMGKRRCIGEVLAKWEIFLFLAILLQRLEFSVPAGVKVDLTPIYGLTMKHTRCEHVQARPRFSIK
Method: (§1) The final incubation system contained 100 mM PBS, 5 mM MgCl2, 0.5 mg/mL liver microsomal protein, and 1 mM NADPH. […] The final concentration of MT was 1 μM.

[4] = molecular target: T2, CYP enzymes involved in melatonin 6-hydroxylation (Homo sapiens, UniProt P05177); test: Competitive inhibition of CBD on MT 6-hydroxylation, human liver microsomes; type: in vitro ADME; settings: human, liver microsomes, probe melatonin (MT) 1 μM, 6-hydroxylation to 6-HMT
T2 construct: tissue XenoTech; host or cells: human liver microsomes
T2 sequence (P05177 1-516): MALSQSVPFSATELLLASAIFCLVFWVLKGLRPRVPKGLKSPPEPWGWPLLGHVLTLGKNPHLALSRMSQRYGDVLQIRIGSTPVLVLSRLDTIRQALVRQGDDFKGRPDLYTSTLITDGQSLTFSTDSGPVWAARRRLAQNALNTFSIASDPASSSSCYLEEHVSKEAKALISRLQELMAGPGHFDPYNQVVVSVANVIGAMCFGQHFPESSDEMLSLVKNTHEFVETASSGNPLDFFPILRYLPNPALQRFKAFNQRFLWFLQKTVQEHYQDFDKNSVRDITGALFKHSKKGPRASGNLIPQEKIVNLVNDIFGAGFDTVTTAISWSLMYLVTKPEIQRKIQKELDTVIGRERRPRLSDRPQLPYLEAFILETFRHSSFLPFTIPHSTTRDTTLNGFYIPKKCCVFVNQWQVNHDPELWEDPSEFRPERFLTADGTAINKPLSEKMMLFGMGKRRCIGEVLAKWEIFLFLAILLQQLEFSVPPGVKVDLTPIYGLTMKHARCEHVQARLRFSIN
Method: as §1

[5] = molecular target: T3, CYP enzymes involved in melatonin 6-hydroxylation, human liver microsomes (Homo sapiens, UniProt P05177); test: as above; type: in vitro ADME
T3 construct: tissue XenoTech; host or cells: human liver microsomes
T3 sequence (P05177 1-516): T2 sequence (P05177 1-516)
Method: as §1

[6] = molecular target: T4, CYP enzymes mediating MT 6-hydroxylation in human liver microsomes (CYP1A2) (Homo sapiens, UniProt P05177); test: Irreversible (mechanism-based) inhibition of CBD on MT 6-hydroxylation, human liver microsomes; type: in vitro ADME
T4 construct: tissue XenoTech; host or cells: human liver microsomes
T4 sequence (P05177 1-516): T2 sequence (P05177 1-516)
Method: (§2) The reaction was initiated by adding the NADPH working solution that had also been pre-incubated for 5 min. […] After pre-incubation for different durations (0, 5, 10, 20, 30 min), 10 μL of the incubation mixture were transferred to a secondary incubation system containing 148 μL PBS and 2 μL MT working solution (final MT concentration: 200 μM). An additional 40 μL of NADPH were added, and the mixture was incubated for 30 min.
(§3) Irreversible inhibition assays: A semi-logarithmic curve was generated by plotting residual enzyme activity against pre-incubation time. The observed CYP enzyme inactivation rate (Kobs) was derived from the initial slope of the linear regression. The Lineweaver-Burk double reciprocal curve (1/Kobs vs. 1/I) described by Formula (8) was used to determine KI and Kinact: Kinact was estimated from the reciprocal of the Y-intercept, and KI was obtained from the negative reciprocal of the X-intercept.(8) 1/k=KI/Kinact1/I+1/Kinact

[7] = molecular target: T5, CYP1A2 (CYP enzymes mediating MT 6-hydroxylation) (Homo sapiens, UniProt P05177); test: as above; type: in vitro ADME; settings: probe melatonin (MT) 200 µM, 6-hydroxylation to 6-HMT
T5 construct: tissue XenoTech; host or cells: human liver microsomes
T5 sequence (P05177 1-516): T2 sequence (P05177 1-516)
Method: as §2, §3

[8] = system: CYP enzymes mediating MT 6-hydroxylation in rat liver microsomes; test: Irreversible (mechanism-based) inhibition of CBD on MT 6-hydroxylation, rat liver microsomes; type: in vitro ADME
Method: as §2, §3

[9] = system: CYP enzymes of MT 6-hydroxylation; test: in vitro; settings: rat, liver microsomes, probe melatonin (MT) 2 μM, 6-hydroxylation to 6-HMT, IC50 Ratio (IC50 shift), RLM, 30 min pre-incubation with/without NADPH
Method: (§5) The reaction was initiated by adding pre-warmed NADPH (control groups lacked NADPH). The final incubation mixture contained 100 mM PBS, 5 mM MgCl2, liver microsomes (0.5 mg/mL), 1 mM NADPH, and 0.2% BSA. […] Concentrations in beagle dog microsomal incubations were 0, 0.125, 0.25, 0.5, 1, 2, 4, 8, 16, and 32 μM. […] All samples were prepared in triplicate. The concentration of 6-HMT was quantified using LC-MS/MS.
(§6) Competitive inhibition and time-dependent inhibition assays: The production of 6-HMT without inhibitors was set as 100%.

[10] = system: CYP enzymes of MT 6-hydroxylation; test: in vitro; settings: human, liver microsomes, probe melatonin (MT) 2 μM, 6-hydroxylation to 6-HMT, IC50 Ratio (IC50 shift), HLM, 30 min pre-incubation with/without NADPH
Method: as §5, §6

[11] = system: liver microsomes from different species; test: Effect of MT on in vitro metabolism of CBD in liver microsomes; type: in vitro ADME, human, rat, beagle; settings: CBD 1 μM, MT up to 32 μM
Method: The reaction was initiated by adding pre-incubated NADPH. The system contained liver microsomes at 0.5 mg/mL and NADPH at 1 mM (both diluted in PBS containing MgCl2). […] All samples were prepared in triplicate. The content of CBD was determined by LC-MS/MS.

[12] = system: CYP1A2-mediated metabolism of MT; test: Static DDI model prediction of CBD's impact on MT exposure, human; settings: input of static DDI model
Description: (AUC when co-administered with the inhibitor) to AUC[contr] (AUC without the inhibitor).

[13] = read-out: Km of MT 6-hydroxylation; HLM
in vitro [14] = settings: rat, liver microsomes
in vitro [15] = settings: human, liver microsomes, Km of MT 6-hydroxylation, HLM

Compound | Rb/p (Ratio) [1] | fraction unbound at 6 h [2] | IC50 at 30 min ([3]; IC50, beagle, as listed in Table 6 for static DDI model) [µM] | IC50 at 30 min ([3]; IC50, inhibition of MT 6-hydroxylation, DLM, MT 1 μM) [µM] | IC50 at 30 min [4] [µM] | IC50 [5] [µM] | Ki [6] [µM] | Ki ([7]; human, liver microsomes) [µM] | kinact ([7]; human liver microsomes) [s⁻¹] | irreversible inhibitory effect [8] | IC50 shift at 30 min [9] | IC50 shift at 30 min [10] | competitive inhibition of CBD metabolism by MT [11] | fm(CYP1A2), proportion of MT metabolized by CYP1A2 [12] | Km [13] [µM] | Km at 15 min (in vitro [14]) [µM] | Km at 15 min (in vitro [15]) [µM]
C=C(C)[C@@H]1CCC(C)=C[C@H]1c1c(O)cc(CCCCC)cc1O [CBD, Cannabidiol] | 0.82 (0.19) | < 0.01 | 0.65 | 3.42 ± 1.3 | 3.39 | 16.5 ± 4.23 | 25.6 | 0.0187 | 0.00105 | no irreversible inhibitory effect was observed | 1.81 | 2.55 | – | – | – | – | –
COc1ccc2[nH]cc(CCNC(C)=O)c2c1 [MT, Melatonin] | – | – | – | – | – | – | – | – | – | – | – | – | does not exert competitive inhibition on CBD | 0.92 | 165 | 147 | 165
